A short description of series [1]: Cytotoxicity in Huh7.5 cells (Cell Titer Glo, ATP). The conditions noted are these: human, Huh7.5 cells; Huh7.5, 24 h. It counts as cell-based. On the procedure:
(§1) Cell viability was measured via the presence of ATP using the Promega Cell Titer Glo kit according to the manufacturer's instructions. Luminescence was detected using the Cytation3 by Biotek. […] (B) The same set of data as shown in FIG. 4A was plotted in a line graph. […] (D) As for FIG. 4A, Huh7.5 cells (1.0×10^4 cells/well) were seeded and incubated with C10 at the indicated concentrations for the indicated time points before measurement of viability using the Promega Cell Titer Glo kit.
(§2) Cell viability was measured by the presence of ATP using the Promega Cell Titer Glo Kit according to the manufacturer's instructions. Luminescence was detected using a Biotek Cytation3.
(§3) In the analysis of the data, all values were normalized against the DMSO control and presented in terms of percentage viability. The result is shown in the bar chart of FIG. 4A and the line chart of FIG. 4B; n≥6 with SEM.
(§4) For this purpose, Huh7.5 cells were seeded, treated and analyzed as described above. The CC50 values for C10, D1, D2, and D3 were calculated using GraphPad Prism6 software with a non-linear regression curve fitting algorithm, as shown in FIG. 4B. It should be noted that the tested compounds precipitate at concentrations above 160 μM in aqueous solutions. For this reason, higher concentrations cannot be tested.

The test system of a further series is Huh7.5 cells. Nature of the series: Cytotoxicity in Huh7.5 cells (Cell Titer Glo, ATP). It counts as cell-based. To be noted: Huh7.5, 24 h. On the procedure: as §1, §2, §3, §4
The next series deals with DEN1/2. Nature of the series: IC50 in established virological assays (Table 1), DEN1/2. It counts as cell-based. The conditions noted are these: Dengue virus. The source says:
In summary, a set of C10 derivatives (FIG. 12) was designed, synthesized and tested against HCV (which is considered as an established system to monitor drug effects against Flaviviridae) as well as DENV for comprehensive structure-activity relationship (SAR) analysis and target validation.

In the next series the test system is FluAV. Nature of the series: IC50 in established virological assays (Table 1), FluAV. It counts as cell-based. To be noted: Influenza A virus.
A further series concerns HIV. Nature of the series: IC50 in established virological assays (Table 1), HIV. It counts as cell-based. On the procedure: In summary, a set of C10 derivatives (FIG. 12) was designed, synthesized and tested against HCV (which is considered as an established system to monitor drug effects against Flaviviridae) as well as DENV for comprehensive structure-activity relationship (SAR) analysis and target validation. IC50 and CC50 values for compound C10 were determined in established virological assays (Table 1). […] Further, said experiments underline the specificity of compound C10 for flaviviruses.

A further series relates to DENV1. Nature of the series: Plaque assay of released virus, DENV1-infected Vero cells. It counts as cell-based. The conditions noted are these: Dengue virus. The procedure: Vero cells were infected with DENV1-4 at an MOI of 1 for 2 h (post infection, p.i., (A)), after which virus was removed, and fresh maintenance medium containing 2% FCS together with the indicated concentration of C10 added. For co-treat condition (c.t., (B)), Vero cells were infected with DENV1-4 at an MOI of 1 in the presence of C10 for 2 h, followed by removal of the virus/C10 inoculums, and addition of fresh 2% fetal calf serum maintenance medium. […] Results represent the mean ±SD for duplicate wells from a single assay, representative of 2 independent experiments (cf. Tables 2A and 2B, infra, for pooled data).
Vero and BHK-21 cells were maintained in DMEM media supplemented with 10% heat-inactivated FBS at 37° C. in a humidified incubator supplemented with 5% CO2; A549 cells were maintained in F-12K medium supplemented with 10% heat-inactivated Fetal Bovine Serum (FBS), 2 mM L-glutamine, 50 U/I penicillin, 0.05 mg/l streptomycin. […] Viral titer was subsequently determined by plaque assay (see below).
Vero cells were seeded into 24-well plates at a density of 2×10^5 cells/well and grown overnight in culture medium at 37° C. with 5% CO2 prior to infection with RSV, KUNV, ZIKV as indicated. […] The stain was removed by rinsing the cells with tap water, and the viral plaques were counted visually. […]

For a further series, the system named is KUNV (MRM61C strain). Briefly: Plaque assay of released virus, KUNV-infected Vero cells. It counts as cell-based, Kunjin virus. The conditions noted are these: West Nile virus. On the procedure:
Vero cells were infected with KUNV at an MOI of 1 for 2 h (post infection), after which virus was removed, and fresh maintenance medium containing 2% FCS together with the indicated concentration of C10 added. For co-treat condition, Vero cells were infected with KUNV at an MOI of 1 in the presence of C10 for 2 h, followed by removal of the virus/C10 inoculums, and addition of fresh 2% fetal calf serum maintenance medium.
(§5) Vero and BHK-21 cells were maintained in DMEM media supplemented with 10% heat-inactivated FBS at 37° C. in a humidified incubator supplemented with 5% CO2; A549 cells were maintained in F-12K medium supplemented with 10% heat-inactivated Fetal Bovine Serum (FBS), 2 mM L-glutamine, 50 U/I penicillin, 0.05 mg/l streptomycin. DENV-1-4 strains, cell culture conditions and Gen-Bank accession numbers, as well as details of RSV strains and culture are known in the art. […] Viral titer was subsequently determined by plaque assay (see below).
Vero cells were seeded into 24-well plates at a density of 2×10^5 cells/well and grown overnight in culture medium at 37° C. with 5% CO2 prior to infection with RSV, KUNV, ZIKV as indicated. BHK-21 cells were used for DENV1-4. […] The stain was removed by rinsing the cells with tap water, and the viral plaques were counted visually. […]

The next series relates to RSV. Nature of the series: Plaque assay, RSV infection (A549 cells lysed at 22 h). It counts as cell-based. The conditions noted are these: human respiratory syncytial virus. The procedure:
as §5
Vero cells were seeded into 24-well plates at a density of 2×10^5 cells/well and grown overnight in culture medium at 37° C. with 5% CO2 prior to infection with RSV, KUNV, ZIKV as indicated. BHK-21 cells were used for DENV1-4. The virus inoculum was removed and replaced with semisolid overlays of 0.8% aquacide II (Calbiochem) in DMEM+2% FBS, and the mixture was incubated at 37° C. with 5% CO2. After 3-5 days, the cells were fixed with neutral buffered formalin (Sigma) for 3 h at room temperature, rinsed with tap water, and stained with 1% crystal violet for 10 min. The stain was removed by rinsing the cells with tap water, and the viral plaques were counted visually. Dose-response curves were plotted from the plaque number versus the log of the concentration of the test compounds. […]

The next series deals with T1, DENV capsid protein (Dengue virus type 2, UniProt P29990).
T1 construct: recombinant DENV capsid protein; made in house; host or cells: E. coli
T1 sequence (P29990 1-100): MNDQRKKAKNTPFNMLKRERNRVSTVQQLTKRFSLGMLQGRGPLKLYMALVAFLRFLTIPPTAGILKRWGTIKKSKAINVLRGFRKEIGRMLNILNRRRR
Briefly: Crosslinking of recombinant DENV capsid protein (Western blot). It counts as biochemical. The text has this: DSS was included as a positive control.

Series [2] is described as follows: Solubilization in dosing vehicle recipes. It counts as physicochemical. The procedure: The compound was assessed for solubilization in 5 different vehicle recipes: • 1. Physiological saline (0.9% NaCl solution in water) • 2. Kolliphor HS—physiological saline (20%:80%) • 3. DMSO-PEG400—physiological saline (20%:50%:30%) • 4. PEG400—5% dextrose in water (75%:25%) • 5. DMSO-Cremophor EL—5% Mannitol (10%:10%:80%)
To prepare the formulation using the DMSO-PEG400 —physiological saline (20%:50%:30%) recipe, the compound was first supplemented with the calculated volume of DMSO, vortexed for 1 minute and sonicated for 2 minutes at 40° C. Next, PEG400 and physiological saline were added. The final mixture was vortexed and sonicated for 2 minutes at 40° C. The working formulations batch was prepared for 1 h prior to the in vivo study.

For a further series, the system named is HCV. Briefly: Antiviral effect on HCV (virus release), Jc1-Luc-IRES in Huh7.5 cells.

Like-named read-outs stand apart in the source and are kept apart here.

Turning to `CCN1/C(=C\C=C\c2sc3cc(NC(C)=O)ccc3[n+]2CC)Sc2cc(NC(C)=O)ccc21.[I-]` [C10, 6-acetamido-2-((1E,3E)-3-(6-acetamido-3-ethylbenzo[d]thiazol-2(3H)-ylidene)prop-1-en-1-yl)-3-ethylbenzo[d]thiazol-3-ium iodide], the half-maximal cytotoxic concentration (CC50) at 24 h in series [1] is 106000 nM. Further, the “concentration up to which not toxic” value in the series with Huh7.5 cells was “up to 40 μM”. The IC50 in the series on DEN1/2 is 110 to 180 nM; in the series on FluAV, around 5000 nM; in the series with HIV (Human immunodeficiency virus 1, HIV), above 100000 nM. For the same molecule, the “activity against HIV” value in the series with HIV was “does not act on HIV”. Also, the EC50 was 40 nM with DENV1 (read-out: EC50 from plaque assays, DENV1, c.t. (co-treat)); 110 nM with DENV1 (read-out: EC50 from plaque assays, DENV1, p.i. (post infection)); 50 nM in the series on KUNV (MRM61C strain) (read-out: EC50 from plaque assays, KUNV, c.t.); 420 nM with KUNV (MRM61C strain) (read-out: EC50 from plaque assays, KUNV, p.i.); 890 nM in the series with RSV (c.t., read-out: EC50 from plaque assays); around 800 nM in the series with RSV (co-added with virus (text, Tables 2A and 2B), read-out: EC50). Further, the “effect on oligomerization state of DENV capsid protein” value on DENV capsid protein is “enhance the presence of dimers, tetramers and higher oligomeric states”. The solubility entry in series [2] (5 vehicle recipes) is “very low solubility”. Further, in [2] (only in DMSO-PEG400-physiological saline (20%:50%:30%)), the “concentration of full dissolution” value was 1000 µg/mL. Also, the “antiviral effect on release of infectious HCV” value with HCV (24 h treatment) is reported as “antiviral effects even at low concentrations”. Moreover, the “therapeutic index CC50/EC50” value with HCV (HCV virus release, Huh7.5) is “approximately 590”.
